Source: patent publication US20100035871A1, “BENZOXAZINE DERIVATIVES AND USES THEREOF” (priority 2006, published 2010)

Legend:
[1] = molecular target: T1, human 5-HT2C receptor (Homo sapiens, UniProt P28335); assay: 5-HT2C receptor-stimulated calcium mobilization (FLIPR) in CHO cells; type: cell-based; conditions: for Emax: CHO, read-out: 5-HT2C Function EMax (%); for EC50: calcium mobilization, CHO cells, read-out: 5-HT2C Function EC50
T1 construct: expressed in transfected cells; host or cells: CHO (Chinese Hamster Ovary) cells; membrane preparation
T1 sequence (P28335 33-458): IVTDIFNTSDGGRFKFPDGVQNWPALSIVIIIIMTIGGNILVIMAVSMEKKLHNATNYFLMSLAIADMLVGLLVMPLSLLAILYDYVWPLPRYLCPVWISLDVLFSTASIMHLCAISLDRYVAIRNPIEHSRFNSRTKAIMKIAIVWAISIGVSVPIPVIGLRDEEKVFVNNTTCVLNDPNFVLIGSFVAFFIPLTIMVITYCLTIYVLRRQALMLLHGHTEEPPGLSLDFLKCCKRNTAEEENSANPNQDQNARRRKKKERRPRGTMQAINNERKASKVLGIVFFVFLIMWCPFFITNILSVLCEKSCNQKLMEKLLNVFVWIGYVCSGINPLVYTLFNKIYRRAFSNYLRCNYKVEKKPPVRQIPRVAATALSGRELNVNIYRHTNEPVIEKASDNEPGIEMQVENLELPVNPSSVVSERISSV

[2] = molecular target: T1, human 5-HT2C receptor; assay: 5-HT2C receptor binding, [125I]DOI displacement, membranes of transfected CHO cells; conditions: read-out: 5-HT2C Binding Ki avg

Row | Emax [1] [%] | EC50 [1] [µM] | Ki [2] [µM] | Structure (SMILES)
1 | 60 | 0.049 | 0.0465 | COc1ccccc1-c1cccc2c1OC(CN)CN2C (racemic) [Example 1, 1-[8-(2-Methoxyphenyl)-4-methyl-3,4-dihydro-2H-1,4-benzoxazin-2-yl]methanamine]
2 | 70 | 0.28 | 0.0148 | Cc1cc(Cl)ccc1-c1cccc2c1OC(CN)CN2C (racemic) [Example 2, 1-[8-(4-Chloro-2-methylphenyl)-4-methyl-3,4-dihydro-2H-1,4-benzoxazin-2-yl]methanamine]
3 | 70 | 0.122 | 0.0131 | CN1CC(CN)Oc2c(-c3ccc(Cl)cc3Cl)cccc21 (racemic) [Example 3, 1-[8-(2,4-Dichlorophenyl)-4-methyl-3,4-dihydro-2H-1,4-benzoxazin-2-yl]methanamine]
4 | 70 | 0.062 | 0.0086 | CN1CC(CN)Oc2c(-c3ccccc3C(F)(F)F)cccc21 (racemic) [Example 4, 1-{4-Methyl-8-[2-(trifluoromethyl)phenyl]-3,4-dihydro-2H-1,4-benzoxazin-2-yl}methanamine]
5 | 80 | 0.02 | 0.0104 | COc1ccc(-c2cccc3c2OC(CN)CN3C)c(C)c1 (racemic) [Example 5, 1-[8-(4-Methoxy-2-methylphenyl)-4-methyl-3,4-dihydro-2H-1,4-benzoxazin-2-yl]methanamine]
6 | 80 | 0.07 | 0.0121 | COc1ccc(-c2cccc3c2OC(CN)CN3C)cc1 (racemic) [Example 6, 1-[8-(4-Methoxyphenyl)-4-methyl-3,4-dihydro-2H-1,4-benzoxazin-2-yl]methanamine]
7 | 60 | 0.072 | 0.0195 | CN1CC(CN)Oc2c(-c3ccccc3F)cccc21 (racemic) [Example 7, 1-[8-(2-Fluorophenyl)-4-methyl-3,4-dihydro-2H-1,4-benzoxazin-2-yl]methanamine]
8 | 70 | 0.082 | 0.0268 | Cc1ccccc1-c1cccc2c1OC(CN)CN2C (racemic) [Example 8, 1-[4-Methyl-8-(2-methylphenyl)-3,4-dihydro-2H-1,4-benzoxazin-2-yl]methanamine]
9 | 70 | 0.005 | 0.0009 | NCC1CNc2cc(F)cc(-c3c(Cl)cccc3Cl)c2O1 (racemic) [Example 10, 1-[8-(2,6-Dichlorophenyl)-6-fluoro-3,4-dihydro-2H-1,4-benzoxazin-2-yl]methanamine]
10 | 70 | 0.037 | 0.0092 | CN1CC(CN)Oc2c(-c3ccccc3Cl)cccc21 (racemic) [Example 11, 1-[8-(2-Chlorophenyl)-4-methyl-3,4-dihydro-2H-1,4-benzoxazin-2-yl]methanamine]
11 | 40 | 0.166 | 0.0227 | NCC1CN(CC2CC2)c2cccc(-c3ccccc3Cl)c2O1 (racemic) [Example 12, 1-[8-(2-Chlorophenyl)-4-(cyclopropylmethyl)-3,4-dihydro-2H-1,4-benzoxazin-2-yl]methanamine]
12 | 70 | 0.131 | 0.0128 | CN1CC(CN)Oc2c(-c3cc(Cl)ccc3Cl)cccc21 (racemic) [Example 13, 1-[8-(2,5-Dichlorophenyl)-4-methyl-3,4-dihydro-2H-1,4-benzoxazin-2-yl]methanamine]
13 | 60 | 0.012 | 0.0064 | NCC1CNc2cccc(-c3cc(Cl)ccc3Cl)c2O1 (racemic) [Example 14, 1-[8-(2,5-Dichlorophenyl)-3,4-dihydro-2H-1,4-benzoxazin-2-yl]methanamine]
14 | 70 | 0.008 | 0.0159 | NCC1CNc2cccc(-c3ccc(Cl)cc3Cl)c2O1 (racemic) [Example 15, 1-[8-(2,4-Dichlorophenyl)-3,4-dihydro-2H-1,4-benzoxazin-2-yl]methanamine]
15 | 70 | 0.003 | 0.014 | NCC1CNc2cccc(-c3ccccc3Cl)c2O1 (racemic) [Example 16, 1-[8-(2-Chlorophenyl)-3,4-dihydro-2H-1,4-benzoxazin-2-yl]methanamine]
16 | 72 | 0.101 | 0.031 | Cc1ccccc1-c1cccc2c1OC(CN)CN2 (racemic) [Example 17, 1-[8-(2-Methylphenyl)-3,4-dihydro-2H-1,4-benzoxazin-2-yl]methanamine]
17 | 56 | 0.109 | 0.0079 | NCC1CNc2cccc(-c3ccc(Cl)cc3C(F)(F)F)c2O1 (racemic) [Example 18, 1-{8-[4-Chloro-2-(trifluoromethyl)phenyl]-3,4-dihydro-2H-1,4-benzoxazin-2-yl}methanamine]

Row | Emax [1] [%] | EC50 [1] [µM] | Ki [2] [µM] | Structure (SMILES)
18 | 75 | 0.285 | 0.0195 | Cc1cc(Cl)ccc1-c1cccc2c1OC(CN)CN2 (racemic) [Example 20, 1-[8-(4-chloro-2-methylphenyl)-3,4-dihydro-2H-1,4-benzoxazin-2-yl]methanamine]
19 | 72 | 0.039 | 0.0072 | NCC1CNc2cccc(-c3ccccc3C(F)(F)F)c2O1 (racemic) [Example 22, 1-{8-[2-(Trifluoromethyl)phenyl]-3,4-dihydro-2H-1,4-benzoxazin-2-yl}methanamine]
20 | 79 | 0.367 | 0.0395 | NCC1CNc2cccc(-c3ccc(C(F)(F)F)cc3C(F)(F)F)c2O1 (racemic) [Example 23, 1-{8-[2,4-Bis(trifluoromethyl)phenyl]-3,4-dihydro-2H-1,4-benzoxazin-2-yl}methanamine]
21 | 75 | 0.025 | 0.0149 | COc1ccc(-c2cccc3c2OC(CN)CN3)c(C)c1 (racemic) [Example 24, 1-[8-(4-Methoxy-2-methylphenyl)-3,4-dihydro-2H-1,4-benzoxazin-2-yl]methanamine]
22 | 47 | 1.29 | 0.0532 | COc1ccc(-c2cc(Cl)cc3c2NC(CN)CO3)c(C)c1 (racemic) [Example 27, 1-[7-chloro-5-(4-methoxy-2-methylphenyl)-3,4-dihydro-2H-1,4-benzoxazin-3-yl]methanamine]
23 | 60 | 0.876 | 0.0305 | Cc1ccc(-c2cc(Cl)cc3c2NC(CN)CO3)c(C(F)(F)F)c1 (racemic) [Example 31, 1-{7-chloro-5-[4-methyl-2-(trifluoromethyl)phenyl]-3,4-dihydro-2H-1,4-benzoxazin-3-yl}methanamine]
24 | 57 | 1.01 | 0.0295 | COc1ccc(-c2cc(Cl)cc3c2NC(CN)CO3)c(Cl)c1 (racemic) [Example 32, 1-[7-chloro-5-(2-chloro-4-methoxyphenyl)-3,4-dihydro-2H-1,4-benzoxazin-3-yl]methanamine]
25 | 53 | 0.845 | 0.0468 | NCC1COc2cc(Cl)cc(-c3ccccc3Cl)c2N1 (racemic) [Example 36, 1-[7-chloro-5-(2-chlorophenyl)-3,4-dihydro-2H-1,4-benzoxazin-3-yl]methanamine]
26 | 54 | 0.331 | 0.0193 | NCC1COc2cc(F)cc(-c3ccccc3C(F)(F)F)c2N1 (racemic) [Example 55, 1-{7-fluoro-5-[2-(trifluoromethyl)phenyl]-3,4-dihydro-2H-1,4-benzoxazin-3-yl}methanamine]
27 | 59 | 0.138 | 0.0369 | COc1ccc(-c2cc(F)cc3c2NC(CN)CO3)c(Cl)c1 (racemic) [Example 59, 1-[5-(2-chloro-4-methoxyphenyl)-7-fluoro-3,4-dihydro-2H-1,4-benzoxazin-3-yl]methanamine]
28 | 60 | 0.00687 | 0.0148 | NC[C@H]1CNc2cccc(-c3ccccc3Cl)c2O1 [Example 39, 1-[(2S)-8-(2-chlorophenyl)-3,4-dihydro-2H-1,4-benzoxazin-2-yl]methanamine]
29 | 45 | 0.0443 | 0.0605 | NC[C@@H]1CNc2cccc(-c3ccccc3Cl)c2O1 [Example 40, 1-[(2R)-8-(2-chlorophenyl)-3,4-dihydro-2H-1,4-benzoxazin-2-yl]methanamine]
30 | 62 | 0.0105 | 0.0166 | NC[C@@H]1CNc2cccc(-c3ccccc3C(F)(F)F)c2O1 [Example 41, 1-{(2R)-8-[2-(trifluoromethyl)phenyl]-3,4-dihydro-2H-1,4-benzoxazin-2-yl}methanamine]
31 | 80 | 0.00274 | 0.035 | NC[C@H]1CNc2cccc(-c3ccccc3C(F)(F)F)c2O1 [Example 47, 1-{(2S)-8-[2-(trifluoromethyl)phenyl]-3,4-dihydro-2H-1,4-benzoxazin-2-yl}methanamine]
32 | 74 | 0.00072 | 0.0333 | COc1ccc(-c2cccc3c2O[C@@H](CN)CN3)c(C)c1 [Example 50, 1-[(2S)-8-(4-methoxy-2-methylphenyl)-3,4-dihydro-2H-1,4-benzoxazin-2-yl]methanamine]
33 | 78 | 0.00017 | 0.00905 | COc1ccc(-c2cccc3c2O[C@@H](CN)CN3)c(Cl)c1 [Example 52, 1-[(2S)-8-(2-chloro-4-methoxyphenyl)-3,4-dihydro-2H-1,4-benzoxazin-2-yl]methanamine]
